Reference: US20120309753A1, “METHOD OF DISSOLVING ANTIFUNGAL AGENT, AND COMPOSITIONS WITH A HIGH CONCENTRATION OF ANTIFUNGAL AGENT, SUITABLE FOR APPLICATION TO THE NAIL” (GALDERMA RESEARCH & DEVELOPMENT, priority 2009, published 2012)
Structures can show the parent of a compound that is named as a salt. Where two headings read alike, the source gives them in different places.

How the values were obtained:
[1] = Procedure: Different solubility tests on terbinafine HCl were carried out in different solvent systems. The solubility was both estimated visually by Method 1 below, then quantified by HPLC assay by Method 2 below.
Weigh out precisely approximately 15 mg of terbinafine HCl into a 50 ml volumetric flask. Dissolve in the diluent and make up to the volume with the same solvent. Prepare the solution in duplicate (A1, A2)
Dilute solution A to 1/5 in the diluent. Dilution
The standard range is produced by varying the injection volume of solution A, at an equivalent concentration of 4 μg/ml to 120 μg/ml.
2 tests per sample are prepared, of concentrations from 40 μg/ml to 100 μg/ml.
• Column: Sun Fire C18 4.6×100 mm 3.5 μm, fitted with a precolumn. • Column temperature: 30° C. • Flow rate: 1.5 ml/min • Injected volume: 30 μl for the sample solutions • Analysis time: 10 min • Detection at: 285 nm • Gradient:
• Inject a blank sample (diluent) and check that no peak of the blank sample interferes with the terbinafine HCl. • Inject solutions STD1 and STD2 and check that the % deviation between the 2 controls is <2%.

[2] = Visual solubility of terbinafine HCl in solvent systems (Method 1); type: physicochemical
Procedure: Terbinafine HCl is weighed out accurately into a 20 ml flask and then the solvents are added. The flask is subsequently placed, with magnetic stirring, in a chamber thermostated at 20° C., for 16 h. If some of the active ingredient has not dissolved, a further addition of solvent is made. The flask is then placed again, with magnetic stirring, in the thermostated chamber, for 16 h, until dissolution is complete. If this is not so, the preceding step is repeated.

Trichophyton rubrum = conditions: oral route, 250 mg/day for 6 months; cited from earlier work

solubility by HPLC assay ([1]; 50/50 ethanol/propylene glycol mixture) [% w/w]	expected solubility by additive effect ([1]; ethanol/propylene glycol binary mixture, expected from the single solvents) [%]	solubility by HPLC assay ([1]; in ethanol) [% w/w]	solubility by HPLC assay ([1]; in propylene glycol) [% w/w]	visual solubility ([2]; 15% water, 70% ethanol, 15% propylene glycol) [% w/w]	visual solubility ([2]; 15% water, 70% propylene glycol, 15% ethanol) [% w/w]	visual solubility ([2]; 30% water, 35% propylene glycol, 35% ethanol) [% w/w]	visual solubility ([2]; 33% water, 33% propylene glycol, 33% ethanol) [% w/w]	visual solubility ([2]; 50/50 ethanol/propylene glycol mixture, 20° C.) [% w/w]	visual solubility ([2]; binary water/ethanol mixture (50/50), 20° C.) [% w/w]	visual solubility ([2]; binary water/propylene glycol mixture (50/50), 20° C.) [% w/w]	visual solubility ([2]; in ethanol, 20° C.) [% w/w]	visual solubility ([2]; in propylene glycol, 20° C.) [% w/w]	visual solubility ([2]; in water, 20° C.) [% w/w]	solubility ([2]; ternary water/propylene glycol/ethanol mixture containing at least 30% of water (Graph 1))	solubility ([2]; ternary mixture with 40% of water, amount of ethanol greater than or equal to that of propylene glycol)	SMILES	efficacy in the treatment of onychomycoses due to Trichophyton rubrum (Trichophyton rubrum)
20.4	~14	18.09	10.3	25.2	25.0	18.5	15.5	23.3	16.7	2.2	19.7	8.9	0.6	greater than 10%		CN(C/C=C/C#CC(C)(C)C)Cc1cccc2ccccc12 [terbinafine HCl, terbinafine hydrochloride]	
															greater than 10%	CN(C/C=C/C#CC(C)(C)C)Cc1cccc2ccccc12 [terbinafine]	effective
